Data as given in PMC9981206 (Cancer Research Communications, 2022).

Experiments:
Type in all cases: cell-based
[1] = test system: RKO colon carcinoma cells; test: MTS colorimetric cell growth assay, RKO; settings: Homo sapiens, 120 h, read-out: RKO GI50
Text: (§1) The cell cultures were kept below 20 passages (∼10 weeks) and routinely monitored (upon thawing and monthly) for Mycoplasma infections with MycoAlert Mycoplasma Detection Kit (Lonza). All cell lines were authenticated by short tandem repeat profiling to confirm their identity (Eurofins). TNKS1/2 and PARP1 biochemical assays ([27, 32]), luciferase-based WNT/β-catenin signaling pathway reporter assay ([22, 27, 32]), anti-proliferative assays, and NCI-60 tumor cell line panel screen ([7]), immunoblot analyses ([7, 32, 39]), RNA isolation, and real-time qRT-PCR ([7, 27, 39, 40]) were performed as previously described.
(§2) B, IC50 values for inhibition of TNKS1, TNKS2, and PARP1 (biochemical assays) and luciferase-based WNT/β-catenin signaling reporter assay in HEK293 cells (WNT reporter). […] Mean ± SD values from a minimum of three independent experiments are shown. For B and C, numbers in superscript indicate data from reference 22, 27, 31, and 32. […] C, MTS colorimetric cell growth assay for various concentrations of tankyrase inhibitors in treated COLO 320DM and RKO colon cancer cells. […] Data from one representative experiment of more than three repeated assays, each with six replicates, are shown.

[2] = test system: COLO 320DM colon carcinoma cells; test: MTS colorimetric cell growth assay, COLO 320DM; settings: Homo sapiens, 120 h, read-out: COLO320DM GI50
Text: as §1, §2

[3] = test system: WNT/β-catenin signaling; test: luciferase-based WNT/β-catenin signaling reporter assay in HEK293 cells; settings: Homo sapiens, HEK293, read-out: WNT reporter IC50
Description: as §1, with “The cell lines where obtained from ATCC or the Japanese Collection of Research Bioresources (JCRB) in 2014 and culturing was performed as described previously ([7]). The” for “The”

Cc1cc(N2C[C@@H](C)N[C@@H](C)C2)ncc1-c1ccc(-c2nc3c(ccn3C)c(=O)[nH]2)cc1 [AZ6102] was tested. Which GI50 [1] did it give?
Its GI50 is 6700 nM.

What about the GI50 [2] of the same compound?
Its GI50 is 50 nM.

What about the IC50 [3] of the same compound?
Its IC50 is 16 ± 4.5 nM.

What does the source list for Oc1nc(-c2ccc(C(F)(F)F)cc2)nc2c1CSCC2 [XAV939]?
GI50 [1]: 9500 nM; GI50 [2]: > 10000 nM; IC50 [3]: 220 ± 21 nM
